{
  "source": "patent US20090099095A1",
  "about": "“Novel neuroprotective peptide” (priority 2007, published 2009)",
  "key": {"[1]": {"system": "organotypic hippocampal slice cultures (OHSCs)", "assay": "NMDA-induced excitotoxicity in organotypic hippocampal slice cultures, propidium iodide (PI) uptake", "format": "cell-based, rat", "experimental": "To test the neuroprotective qualities of test media, OHSCs were first preincubated with PI for 24 hours. Fluorescent photomicrographs were taken, and used to determine the level of background staining. OHSCs were then transferred to test media one hour before 10 μM NMDA was added. Photomicrographs were taken again after 24 hours of NMDA exposure, and the change in PI staining intensity was quantified.\nRat organotypic hippocampal slice cultures (400 μm thick) were prepared from P9 Sprague-Dawley rats, using the method of Stoppini and coworkers^9. OHSCs were cultured in slice medium (50% BME, 25% EBSS, 23% horse serum, 7.5 mg/ml D-glucose, 1 mM L-glutamine and 25 U/ml PEST) for 12-14 days before experiments commenced.\nOHSCs were transferred to test media one hour before exposure to 10 μM NMDA for 24 h. The degree of NMDA-induced excitotoxicity was determined by comparing propidium iodide (PI) uptake prior to exposure with that following exposure. Pictures were captured using a digital camera (Olympus DP50) coupled to an inverted fluorescence microscope (Olympus IX70), equipped with a red long-pass WG fluorescence filter. Uptake of PI was quantified as the mean pixel intensity of epifluorescence, over the whole slice, or in defined sub-regions (ImageJ v1.29x)."}, "[2]": {"system": "cells in the dentate gyrus of OHSCs", "assay": "Immunofluorescence count of dentate gyrus cells double-labelled for PI and DCX or NeuN after NMDA", "format": "cell-based, rat", "experimental": "To determine the cell types which were protected by pentinin, we fixed OHSCs and performed immunofluorescence for markers of neuronally committed progenitors (DCX) and neurons (NeuN). Cells in the dentate gyrus were counted, and the percentage of cells double-labelled for PI and each marker was determined.\nTo characterise cell death, OHSCs were cultured in N2 medium with different concentrations of NMDA (in the presence of PI). After 24 h, OHSCs were washed in PBS and fixed in 4% paraformaldehyde (overnight, 4° C.). OHSCs were blocked and permeabilised by incubation for two hours in PTS (0.1M sodium phosphate buffer, 0.3% triton X-100 and 1% donkey serum (Jackson Immunoresearch Laboratories Inc., West Grove, Pa.)) at room temperature (RT), then incubated overnight (rocking, 4° C.) with mouse anti-NeuN antibody (1:500, Chemicon International Inc, Temecula, Calif.), rabbit anti-Caspase3A antibody (1:250, Cell Signalling Technology), and goat anti doublecortin antibody (Dcx, 1:400, Santa Cruz Biotechnology, Santa Cruz, USA). After thorough washing (3×30 mins in PTS, rocking), OHSCs were incubated overnight (rocking, 4° C.) with donkey anti-mouse Alexa 647-conjugated antibody (1:800, Molecular Probes, Leiden, Netherlands), donkey anti-rabbit Alexa 488-conjugated antibody (1:800, Molecular Probes) and donkey anti-goat Alexa 488-conjugated antibody (1:800, Molecular Probes). OHSCs were washed thoroughly and mounted in Prolong Gold mounting medium (Molecular Probes). Colocalisation of PI and/or Caspase3A staining with NeuN and Dcx immunofluorescence was determined by confocal microscopy (Leica TCS SP2, Leica Microsystems AG, Wetzlar, Germany)."}, "[3]": {"system": "organotypic hippocampal slice cultures (OHSCs)", "conditions": "high doses, literature ref 10; cited from earlier work"}},
  "data": [
    {"molecule": "tyr, thr, pro, lys, thr (YTPKT; Human) [pentinin, pentameric peptide fragment corresponding to residues 26-30 of the insulin B chain]", "values": [
      {"measurement": "effect on excitotoxicity induced by NMDA", "setting": "[1]; 100 μM peptide in unconditioned medium", "result": "reduce excitotoxicity"},
      {"measurement": "effective dose in dose response assay", "setting": "[1]; synthetic peptide added to unconditioned medium, results not shown", "result": 100, "unit": "µM"},
      {"measurement": "reduction of percentage of immature neuronal marker (DCX) cells co-labelled with PI", "setting": "[2]; 100 pM pentinin", "result": 86, "unit": "%"},
      {"measurement": "reduction of percentage of mature neuronal marker (NeuN) cells co-labelled with PI", "setting": "[2]; 100 pM pentinin", "result": 64, "unit": "%"},
      {"measurement": "number of neurons killed by NMDA-induced toxicity", "setting": "[2]; 100 pM synthetic pentinin", "result": "markedly reduced"}
    ]},
    {"molecule": "glial-derived neurotrophic factor (protein, UniProt P39905 78-211, looked up, recombinant protein added to control medium at 1 ng/ml) Glial cell line-derived …: SPDKQMAVLPRRERNRQAAAANPENSRGKGRRGQRGKNRGCVLTAIHLNVTDLGLGYETKEELIFRYCSGSCDAAETTYDKILKNLSRNRRLVSDKVGQACCRPIAFDDDLSFLDDNLVYHILRKHSAKRCGCI", "values": [
      {"measurement": "effect on NMDA-induced excitotoxicity / PI staining (in words)", "setting": "[1]; whole slice, 10 μM NMDA 24 h, GDNF at 1 ng/ml where added", "result": "did not reduce excitotoxicity"},
      {"measurement": "doses at which neuroprotective in OHSCs", "setting": "[3]", "result": "50 to 100", "unit": "ng/mL"}
    ]}
  ]
}
